Laboratory results: US20240059694A1, “COMPOUND CONTAINING 1,3-BENZODIOXOL STRUCTURE AND PREPARATION METHOD AND USE THEREOF” (priority 2021, published 2024)

Columns and labels:
BTK = BTK (Homo sapiens (Human), UniProt Q06187); experiment: BTK kinase inhibitory activity experiment (Caliper EZ reader conversion rate); type: biochemical; conditions: for IC50: in vitro kinase assay, 20 min incubation, class key in μM; for inhibitory activity on BTK (in words): summary of Table 1
Procedure: (§1) Experimental method: The 384-well plate was divided into compound wells (starting at 10 μM, diluted three times to produce 10 concentrations), positive control wells and negative control wells; kinase solution was added to compound wells and positive control wells, and 1×kinase buffer was added to negative control wells; the solution is next centrifuged for 30 seconds and incubated at room temperature for 10 min. Add 15 μL of the mixed solution of ATP and substrate, shake and mix well after centrifugation and incubate at room temperature (30 min for JAK3, 20 min for BTK). Add stop detection solution to stop the reaction, and read the conversion rate with Caliper EZ reader, Data analysis: The formula is as follows: […]
(§2) where Conversion %_sample is the conversion rate reading of the sample Conversion %_min is the average value of the negative control wells representing the conversion rate reading of the wells without enzyme addition; and Conversion %_max is the average value of the positive control wells representing the conversion rate reading of the wells without adding the compound. Fit the dose-response curve: Taking the log value of the concentration as the X-axis, and the percentage inhibition rate as the Y-axis, the dose-response curve was fitted using the log (inhibitor) vs. response-Variable slope of the software GraphPad Prism 5, so as to obtain the IC50 value of each compound on the enzyme activity.

BaF3-TEL-JAK3 cells = experiment: Proliferation inhibition of BaF3-TEL-JAK3 cells (Cell Titer-Glo, 72 h); type: cell-based; conditions: 72 h drug action, class key in μM
Procedure: (§3) Experimental procedure: A certain number of cells in the logarithmic growth phase were inoculated in a 96-well plate and cultured at 37° C. before adding drugs. After 72 h of drug action, after the 96-well cell plate was equilibrated to room temperature, 40 μL of Cell Titer-Glo® reagent was added to each well; each plate was then shaken for 2 min and allowed to stand for 10 min, the chemiluminescent signal was detected with an MD SpectraMax Paradigm microplate reader. Data analysis: The formula is as follows: […]
(§4) Max signal: DMSO signal; Min signal: medium signal, IC50 was calculated using GraphPad Prism 5.

Daudi cells = experiment: Proliferation inhibition of Daudi cells (Cell Titer-Glo, 72 h); type: cell-based; conditions: 72 h drug action, class key in μM
Procedure: as §3, §4

JAK3 = JAK3 (Homo sapiens (Human), UniProt P52333); experiment: JAK3 kinase inhibitory activity experiment (Caliper EZ reader conversion rate); type: biochemical; conditions: for IC50: in vitro kinase assay, 30 min incubation, class key in μM; for inhibitory activity on JAK3 (in words): summary of Table 1
Procedure: as §1, §2

JAK3, sequence (P52333 whole entry): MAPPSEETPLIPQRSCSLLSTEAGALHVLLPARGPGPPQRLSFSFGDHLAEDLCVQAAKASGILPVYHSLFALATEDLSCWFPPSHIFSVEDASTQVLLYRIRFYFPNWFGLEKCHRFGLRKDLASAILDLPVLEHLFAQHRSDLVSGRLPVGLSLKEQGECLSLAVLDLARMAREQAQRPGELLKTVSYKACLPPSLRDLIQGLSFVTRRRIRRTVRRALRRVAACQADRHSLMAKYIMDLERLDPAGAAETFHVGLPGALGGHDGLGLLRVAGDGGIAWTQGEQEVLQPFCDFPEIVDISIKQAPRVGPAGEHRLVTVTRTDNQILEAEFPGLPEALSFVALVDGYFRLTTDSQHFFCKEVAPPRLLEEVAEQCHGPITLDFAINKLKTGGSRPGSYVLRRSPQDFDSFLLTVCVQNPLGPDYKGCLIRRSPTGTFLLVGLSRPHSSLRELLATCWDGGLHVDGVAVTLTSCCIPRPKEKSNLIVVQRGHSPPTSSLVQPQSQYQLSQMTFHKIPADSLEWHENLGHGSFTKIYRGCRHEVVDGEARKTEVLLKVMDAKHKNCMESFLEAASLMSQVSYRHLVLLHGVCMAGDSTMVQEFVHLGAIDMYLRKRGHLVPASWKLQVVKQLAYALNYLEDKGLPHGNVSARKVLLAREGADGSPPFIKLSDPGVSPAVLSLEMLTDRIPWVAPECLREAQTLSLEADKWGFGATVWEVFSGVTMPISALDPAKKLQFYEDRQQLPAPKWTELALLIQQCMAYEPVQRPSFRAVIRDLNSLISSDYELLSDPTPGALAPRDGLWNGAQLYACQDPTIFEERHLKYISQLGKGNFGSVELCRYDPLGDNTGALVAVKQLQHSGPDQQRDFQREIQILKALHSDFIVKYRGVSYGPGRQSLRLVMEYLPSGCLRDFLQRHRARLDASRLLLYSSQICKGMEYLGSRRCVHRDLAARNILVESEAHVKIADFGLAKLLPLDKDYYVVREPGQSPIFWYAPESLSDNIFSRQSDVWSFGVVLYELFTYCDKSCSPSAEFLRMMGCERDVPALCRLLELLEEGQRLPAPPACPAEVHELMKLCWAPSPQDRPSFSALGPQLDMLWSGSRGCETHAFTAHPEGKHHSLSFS
BTK, sequence (Q06187 whole entry): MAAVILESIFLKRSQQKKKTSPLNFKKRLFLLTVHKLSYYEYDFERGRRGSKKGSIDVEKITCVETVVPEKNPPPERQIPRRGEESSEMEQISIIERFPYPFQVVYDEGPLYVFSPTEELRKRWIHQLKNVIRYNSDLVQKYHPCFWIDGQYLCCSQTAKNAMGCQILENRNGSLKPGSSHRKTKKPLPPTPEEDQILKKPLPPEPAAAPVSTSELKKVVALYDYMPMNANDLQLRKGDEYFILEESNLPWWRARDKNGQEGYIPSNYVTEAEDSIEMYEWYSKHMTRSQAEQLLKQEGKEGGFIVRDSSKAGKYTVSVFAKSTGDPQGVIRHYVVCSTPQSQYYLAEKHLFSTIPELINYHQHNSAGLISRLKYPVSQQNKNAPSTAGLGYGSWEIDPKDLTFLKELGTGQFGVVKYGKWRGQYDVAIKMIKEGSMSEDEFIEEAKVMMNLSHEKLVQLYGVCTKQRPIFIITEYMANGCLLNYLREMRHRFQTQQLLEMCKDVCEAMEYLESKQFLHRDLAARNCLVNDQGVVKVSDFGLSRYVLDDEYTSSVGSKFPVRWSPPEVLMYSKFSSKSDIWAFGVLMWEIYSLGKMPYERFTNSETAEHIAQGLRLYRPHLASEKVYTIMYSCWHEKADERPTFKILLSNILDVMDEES

Structure (SMILES) | IC50 (BTK) | IC50 (BaF3-TEL-JAK3 cells) | IC50 (Daudi cells) | IC50 (JAK3) | inhibitory activity on BTK (in words) (BTK) | inhibitory activity on JAK3 (in words) (JAK3)
C=CC(=O)N1CCC[C@@H](n2nc(-c3ccc(NC(=O)c4ccc(-c5ccccc5)cc4)c4c3OCO4)c3c(N)ncnc32)C1 [I-24, (R)-N-(7-(1-(1-acryloylpiperidin-3-yl)-4-amino-1H-pyrazolo[3,4-d]pyrimidin-3-)benzo[d][1,3]dioxoheterocyclopenten-4)-[1,1′-Biphenyl]-4-carboxamide] | 0.001 to 0.05 µM | 0.01 to 0.5 µM | 0.01 to 0.5 µM | 0.05 to 0.5 µM |  | 
C=CC(=O)N1CCC[C@@H](n2nc(-c3ccc(NC(=O)c4ccc(C(C)(C)C)cc4)c4c3OCO4)c3c(N)ncnc32)C1 [I-11, (R)-N-(7-(1-(1-acryloylpiperidin-3)-4-amino-1H-pyrazolo[3,4-d]pyrimidin-3-)benzo[d][1,3]dioxoheterocyclopenten-4)-4-tert-butylbenzamide] | 0.001 to 0.05 µM | 0.01 to 0.5 µM | 0.01 to 0.5 µM | 0.001 to 0.05 µM | excellent inhibitory activity | excellent inhibitory activity
C=CC(=O)N1CCC[C@@H](n2nc(-c3ccc(NC(=O)c4ccc(Cl)cc4)c4c3OCO4)c3c(N)ncnc32)C1 [I-7, (R)-N-(7-(1-(1-acryloylpiperidin-3)-4-amino-1H-pyrazolo[3,4d]pyrimidin-3-)benzo[d][1,3]dioxoheterocyclopenten-4)-4-chlorobenzamide] | 0.001 to 0.05 µM | 0.5 to 1 µM | 0.5 to 1 µM | 0.001 to 0.05 µM | excellent inhibitory activity | excellent inhibitory activity
C=CC(=O)N1CCC[C@@H](n2nc(-c3ccc(NC(=O)c4ccc[nH]4)c4c3OCO4)c3c(N)ncnc32)C1 [I-3, (R)-N-(7-(1-(1-acryloylpiperidin-3-yl)-4-amino-1H-pyrazolo[3,4d]pyrimidin-3-)benzo[d][1,3]dioxoheterocyclopenten-4)-1H-pyrrole-2-formamide] | 0.001 to 0.05 µM | 0.5 to 1 µM | 0.5 to 1 µM | 0.05 to 0.5 µM |  | 
C=CC(=O)N1CCC[C@@H](n2nc(-c3ccc(NC(=O)c4cccs4)c4c3OCO4)c3c(N)ncnc32)C1 [I-2, (R)-N-(7-(1-(1-acryloylpiperidin-3)-4-amino-1H-pyrazolo[3,4-d]pyrimidin-3-yl)benzo[d][1,3]dioxoheterocyclopenten-4-)thiophene-2-formamide] | 0.001 to 0.05 µM | 0.5 to 1 µM | 0.5 to 1 µM | 0.05 to 0.5 µM |  | 
